Source: patent US4447610A, “10-Substituted 5-cyanomethylene-dibenzo[A,B]-cycloheptenes, their preparations, and therapeutic agents containing these compounds” (BASF Aktiengesellschaft, priority 1980, dated 1984)

Columns and labels:
[1] = system: orientation hypermotility; test: Sedative action: decrease in orientation hypermotility of mice; format: in vivo, female NMRI mice; settings: for ED50: Mus musculus, 0.5 h, mice, oral, 30 min after administration, measured for 30 min, read-out: Sedative action ED 50%; for Sedative action R.A. (relative activity): clozapine = 1.00; for sedative-hypnotic effects (in words): compared with clozapine and perlapine
Method: 4-8 groups of 3 female NMRI mice are given the compound orally. The orientation hypermotility induced by a new environment is determined photoelectrically, 30 minutes after administration of the compound, for a period of 30 minutes.
The ED50% is the dose which produces a decrease in orientation hypermotility by 50%, compared to control animals treated with placebo.

[2] = system: tryptamine-induced clonic front paw movements; test: Antitryptamine action: inhibition of tryptamine-induced front paw movements; format: in vivo, rats; settings: for ED50: Rattus norvegicus, ip, rats, intraperitoneal, 30 min before tryptamine.HCl 16 mg/kg i.v., read-out: Antitryptamine action ED 50%; for Antitryptamine action R.A. (relative activity): clozapine = 1.00
Method: 3. Antitryptamine action Tryptamine.HCl (16 mg/kg administered intravenously) regularly causes the following symptoms in rats: clonic front paw movements, back-arching and retropulsion, as well as mandibular movements (Tedeschi et al., J. Pharmacol. Exp. Ther. 126 (1959), 223). The test substances are administered intraperitoneally 30 minutes before the tryptamine. […] The mean inhibitory dose (ED 50%) is determined, by means of Probit analysis, as the dose which prevents the symptom in half the animals.

[3] = system: tonic extensor reflex on the rabbit gastrocnemius; test: Muscle-relaxing action: tonic extensor reflex on the rabbit gastrocnemius; format: in vivo; settings: for Muscle relaxation R.A. (relative activity): clozapine = 1.00; for muscle-relaxing properties (in words): rabbit, in vivo
Excerpt: 2. Muscle-relaxing action The measurement is based on quantifying the tonic extensor reflex on the rabbit gastrocnemius (Teschendorf et al., Arch. Pharmacol. exp. Path. 266 (1970), 462). The rabbit is fixed in a special apparatus which permits bending the paw at the talocalcanean joint in a defined and reproducible manner. As a result of this bending, a tonic extensor reflex is triggered in the […]. The electrical activity of the muscle during contraction is registered and the individual pulses are counted. The extension (duration 5 s) is repeated at intervals of one minute. After a constant number of pulses has been reached (constituting the control value), the test substance is administered intravenously. The number of pulses after administration is related to the previous value. For each dose investigated, 4-6 animals are used. The ED 50% is the dose which reduces the muscle activity to half, based on the initial value.

death from physostigmine = test: Anticholinergic action: protection against death from physostigmine (antiphysostigmine test); format: in vivo, female NMRI mice; settings: Mus musculus; mice, oral, 30 min before physostigmine 0.825 mg/kg s.c.; read-out: Anticholinergic action ED 50%
Method: 4. Anticholinergic action
Groups of 10 female NMRI mice are given physostigmine subcutaneously, at a lethal dose (0.825 mg/kg). The test substances are administered orally 30 minutes before the administration of physostigmine.
The ED 50% is determined as the dose of compound which protects 50% of the animals against death from physostigmine.

Acute toxicity = settings: mouse, in vivo, ip; mice, intraperitoneal; read-out: Toxicity LD 50
Method: Groups of 5-10 female NMRI mice are given the compounds intraperitoneally. The LD 50 is determined as the dose after which 50% of the treated animals die.

CCN1CCN(C2=Cc3ccccc3C(=CC#N)c3ccccc32)CC1 (mixture of isomers) [Example 5, cis,trans-5-Cyanomethylene-10-(4-ethyl-piperazin-1-yl)-dibenzo[a,d]-cycloheptene]
ED50 [1]: 1.38 mg/kg | Sedative action R.A. (relative activity) [1]: 3.43 | ED50 [2]: 18.6 mg/kg | Antitryptamine action R.A. (relative activity) [2]: 0.27 | Muscle relaxation R.A. (relative activity) [3]: 3.54 | ED50 (death from physostigmine): > 21.5 mg/kg | LD50 (Acute toxicity): 287 mg/kg

N#CC=C1c2ccccc2C=C(N2CCN(CCO)CC2)c2ccccc21 (mixture of isomers) [Example 7, cis,trans-5-Cyanomethylene-10-(N-β-hydroxyethyl-piperazin-1-yl)-dibenzo[a,d]-cycloheptene.1/2 H2 O]
ED50 [1]: 0.97 mg/kg | Sedative action R.A. (relative activity) [1]: 4.89 | Muscle relaxation R.A. (relative activity) [3]: 3.54 | ED50 (death from physostigmine): > 21.5 mg/kg | LD50 (Acute toxicity): > 100 mg/kg

C[N+]1([O-])CCN(C2=Cc3ccccc3C(=CC#N)c3ccccc32)CC1 (mixture of isomers) [Example 12, cis,trans-5-Cyanomethylene-10-(4-methyl-4-oxy-piperazin-1-yl)-dibenzo[a,d]-cycloheptene.21/2 H2 O]
ED50 [1]: 1.4 mg/kg | Sedative action R.A. (relative activity) [1]: 3.39 | ED50 [2]: 12.5 mg/kg | Antitryptamine action R.A. (relative activity) [2]: 0.40 | Muscle relaxation R.A. (relative activity) [3]: 0.46 | ED50 (death from physostigmine): > 21.5 mg/kg | LD50 (Acute toxicity): > 100 mg/kg

CN1CCN(C2=Nc3cc(Cl)ccc3Nc3ccccc32)CC1 [Clozapine, reference compound]
Sedative action R.A. (relative activity) [1]: 1.00 | ED50 [2]: 5 mg/kg | Antitryptamine action R.A. (relative activity) [2]: 1.00 | ED50 (death from physostigmine): 14.1 mg/kg

CN1CCN(C2=Cc3ccccc3C(=CC#N)c3ccccc32)CC1 [Example 1, cis- and trans-5-Cyanomethylene-10-(4-methyl-piperazin-1-yl)-dibenzo[a,d]-cycloheptene]
ED50 [1]: 0.96 mg/kg | Sedative action R.A. (relative activity) [1]: 4.94 | Muscle relaxation R.A. (relative activity) [3]: 7.19 | ED50 (death from physostigmine): > 10 mg/kg | LD50 (Acute toxicity): 324 mg/kg

CN1CCN(C2=Cc3ccccc3/C(=C/C#N)c3ccccc32)CC1 [Example 1a]
ED50 [1]: 0.8 mg/kg | sedative-hypnotic effects (in words) [1]: particularly pronounced | Sedative action R.A. (relative activity) [1]: 5.92 | ED50 [2]: 8.6 mg/kg | Antitryptamine action R.A. (relative activity) [2]: 0.58 | muscle-relaxing properties (in words) [3]: particularly pronounced | Muscle relaxation R.A. (relative activity) [3]: 54.12 | ED50 (death from physostigmine): > 10 mg/kg

CN1CCN(C2=Cc3cc(Cl)ccc3C(=CC#N)c3ccccc32)CC1 [Example 4, cis- and trans-2-Chloro-5-cyanomethylene-10-(4-methylpiperazin-1-yl)-dibenzo[a,d]-cycloheptene]
ED50 [1]: 2 mg/kg | Sedative action R.A. (relative activity) [1]: 2.37 | Muscle relaxation R.A. (relative activity) [3]: 10.00 | ED50 (death from physostigmine): > 21.5 mg/kg

CN1CCN(C2=Cc3cc(Cl)ccc3/C(=C/C#N)c3ccccc32)CC1 [Example 4a, cis-5-cyanomethylene-2-chloro-10-(4-methyl-piperazin-1-yl)-dibenzo[a,d]-cycloheptene]
ED50 [1]: 0.44 mg/kg | sedative-hypnotic effects (in words) [1]: particularly pronounced | Sedative action R.A. (relative activity) [1]: 10.77 | ED50 [2]: 0.7 mg/kg | antimonaminergic action, tryptamine antagonism (in words) ([2]; compared with reference substances): markedly more pronounced | Antitryptamine action R.A. (relative activity) [2]: 7.14 | muscle-relaxing properties (in words) [3]: particularly pronounced | Muscle relaxation R.A. (relative activity) [3]: 10.00 | ED50 (death from physostigmine): > 21.5 mg/kg

CCN1CCN(C2=Cc3ccccc3/C(=C/C#N)c3ccccc32)CC1 [Example 5a, cis-5-cyanomethylene-10-(4-ethyl-piperazin-1-yl)-dibenzo[a,d]-cycloheptene]
ED50 [1]: 1 mg/kg | Sedative action R.A. (relative activity) [1]: 4.74 | ED50 [2]: 11.2 mg/kg | Antitryptamine action R.A. (relative activity) [2]: 0.45 | Muscle relaxation R.A. (relative activity) [3]: 4.60 | ED50 (death from physostigmine): > 21.5 mg/kg | LD50 (Acute toxicity): > 100 mg/kg

CN1CCN(C2=Nc3ccccc3Cc3ccccc32)CC1 [Perlapine, reference compound]
ED50 [2]: 4.1 mg/kg | Antitryptamine action R.A. (relative activity) [2]: 1.22 | ED50 (death from physostigmine): > 21.5 mg/kg
